# In patent US9504669B2, “Spliceostatin analogs and methods for their preparation” (PFIZER INC., priority 2012, dated 2016):
# What was measured:
# Type in all cases: cell-based
# Details in all cases: free compounds (natural products and synthetic analogs), cell viability 96 hours after treatment
# [1] = tested on: N87 (gastric cancer) cells; experiment: In vitro cell assay (MTS cell viability), N87
# In short: (§1)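 Cells seeded 24 h, then treated with antibody-drug conjugates or free drug, 3-fold serial dilutions at 10 concentrations in duplicate. Viability by MTS at 96 h as percent of untreated control; IC50 from four-parameter logistic fit.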
# [2] = tested on: BT474 (breast cancer) cells; experiment: In vitro cell assay (MTS cell viability), BT474
# Experimental: Target expressing (BT474 (breast cancer), N87 (gastric cancer), HCC1954 (breast cancer), MDA-MB-361-DYT2 (breast cancer)) or non-expressing (MDA-MB-468) cells were seeded in 96-well cell culture plates for 24 hours before treatment. Cells were treated with 3-fold serially diluted antibody-drug conjugates or free compounds (i.e., no antibody conjugated to the drug) in duplicate at 10 concentrations. Cell viability was determined by CellTiter 96® AQueous One Solution Cell Proliferation MTS Assay (Promega, Madison Wis.) 96 hours after treatment. Relative cell viability was determined as percentage of untreated control. IC50 values were calculated using a four parameter logistic model #203 with XLfit v4.2 (IDBS, Guildford, Surry, UK). The potency ranged upward from 0.0002 nm. Similar procedures and techniques were employed.
# [3] = tested on: MDA-MB-361-DYT2 (breast cancer) cells; experiment: In vitro cell assay (MTS cell viability), MDA-MB-361-DYT2
# In short: as §1
SMILES,IC50 ([1]; 96 h),"IC50 ([2]; Homo sapiens, BT-474)",IC50 ([3]; 96 h),IC50 [1],IC50 [2],IC50 [3]
"CC(=O)O[C@@H](C)/C=C\C(=O)N[C@@H]1C[C@H](C)[C@H](C/C=C(C)/C=C/[C@H]2O[C@H](CC(=O)NCc3ccc(N)cc3F)C[C@@]3(CO3)[C@@H]2O)O[C@@H]1C [#B84, (2S,3Z)-5-{[(2R,3R,5S,6S)-6-{(2E,4E)-5-[(3R,4R,5R,7S)-7-{2-[(4-amino-2-fluorobenzyl)amino]-2-oxoethyl}-4-hydroxy-1,6-dioxaspiro[2.5]oct-5-yl]-3-methylpenta-2,4-dien-1-yl}-2,5-dimethyltetrahydro-2H-pyran-3-yl]amino}-5-oxopent-3-en-2-yl acetate]",2.54 nM,2.53 nM,8.27 nM,–,–,–
"CC(=O)O[C@@H](C)/C=C\C(=O)N[C@@H]1C[C@H](C)[C@H](C/C=C(C)/C=C/[C@H]2O[C@H](CC(=O)NCc3ccc(N)c(F)c3)C[C@@]3(CO3)[C@@H]2O)O[C@@H]1C [#B85, (2S,3Z)-5-{[(2R,3R,5S,6S)-6-{(2E,4E)-5-[(3R,4R,5R,7S)-7-{2-[(4-amino-3-fluorobenzyl)amino]-2-oxoethyl}-4-hydroxy-1,6-dioxaspiro[2.5]oct-5-yl]-3-methylpenta-2,4-dien-1-yl}-2,5-dimethyltetrahydro-2H-pyran-3-yl]amino}-5-oxopent-3-en-2-yl acetate]",1.56 nM,1.47 nM,5.5 nM,–,–,–
"CC(=O)O[C@@H](C)/C=C\C(=O)N[C@@H]1C[C@H](C)[C@H](C/C=C(C)/C=C/[C@H]2O[C@H](CC(=O)NCc3ccc(N)c(C(F)(F)F)c3)C[C@@]3(CO3)[C@@H]2O)O[C@@H]1C [#B88, (2S,3Z)-5-{[(2R,3R,5S,6S)-6-{(2E,4E)-5-[(3R,4R,5R,7S)-7-(2-{[4-amino-3-(trifluoromethyl)benzyl]amino}-2-oxoethyl)-4-hydroxy-1,6-dioxaspiro[2.5]oct-5-yl]-3-methylpenta-2,4-dien-1-yl}-2,5-dimethyltetrahydro-2H-pyran-3-yl]amino}-5-oxopent-3-en-2-yl acetate]",0.73 nM,1.8 nM,2.96 nM,–,–,–
"CC(=O)O[C@@H](C)/C=C\C(=O)N[C@@H]1C[C@H](C)[C@H](C/C=C(C)/C=C/[C@H]2O[C@H](CC(=O)NCc3cccc(N)c3)C[C@@]3(CO3)[C@@H]2O)O[C@@H]1C [#B89, (2S,3Z)-5-{[(2R,3R,5S,6S)-6-{(2E,4E)-5-[(3R,4R,5R,7S)-7-{2-[(3-aminobenzyl)amino]-2-oxoethyl}-4-hydroxy-1,6-dioxaspiro[2.5]oct-5-yl]-3-methylpenta-2,4-dien-1-yl}-2,5-dimethyltetrahydro-2H-pyran-3-yl]amino}-5-oxopent-3-en-2-yl acetate]",1.91 nM,3.56 nM,7.99 nM,–,–,–
"CC(=O)O[C@@H](C)/C=C\C(=O)N[C@@H]1C[C@H](C)[C@H](C/C=C(C)/C=C/[C@H]2O[C@H](CC(=O)N(C)Cc3ccc(S(=O)(=O)N(C)C)cc3)C[C@@]3(CO3)[C@@H]2O)O[C@@H]1C [#B91, (2S,3Z)-5-{[(2R,3R,5S,6S)-6-{(2E,4E)-5-[(3R,4R,5R,7S)-7-(2-{[4-(dimethylsulfamoyl)benzyl](methyl)amino}-2-oxoethyl)-4-hydroxy-1,6-dioxaspiro[2.5]oct-5-yl]-3-methylpenta-2,4-dien-1-yl}-2,5-dimethyltetrahydro-2H-pyran-3-yl]amino}-5-oxopent-3-en-2-yl acetate]",0.783 nM,3.02 nM,3.78 nM,–,–,–
"CC(=O)O[C@@H](C)/C=C\C(=O)N[C@@H]1C[C@H](C)[C@H](C/C=C(C)/C=C/[C@H]2O[C@H](CC(=O)NCc3cc(N)ccc3F)C[C@@]3(CO3)[C@@H]2O)O[C@@H]1C [#B92, (2S,3Z)-5-{[(2R,3R,5S,6S)-6-{(2E,4E)-5-[(3R,4R,5R,7S)-7-{2-[(5-amino-2-fluorobenzyl)amino]-2-oxoethyl}-4-hydroxy-1,6-dioxaspiro[2.5]oct-5-yl]-3-methylpenta-2,4-dien-1-yl}-2,5-dimethyltetrahydro-2H-pyran-3-yl]amino}-5-oxopent-3-en-2-yl acetate]",1.5 nM,2.28 nM,6.18 nM,–,–,–
"CC(=O)O[C@@H](C)/C=C\C(=O)N[C@@H]1C[C@H](C)[C@H](C/C=C(C)/C=C/[C@H]2O[C@H](CC(=O)NCc3ccc(S(=O)(=O)N(C)C)cc3)C[C@@]3(CO3)[C@@H]2O)O[C@@H]1C [#B93, (2S,3Z)-5-{[(2R,3R,5S,6S)-6-{(2E,4E)-5-[(3R,4R,5R,7S)-7-(2-{[4-(dimethylsulfamoyl)benzyl]amino}-2-oxoethyl)-4-hydroxy-1,6-dioxaspiro[2.5]oct-5-yl]-3-methylpenta-2,4-dien-1-yl}-2,5-dimethyltetrahydro-2H-pyran-3-yl[amino}-5-oxopent-3-en-2-yl acetate]",–,–,–,0.647 nM,2.27 nM,3.96 nM
"CNS(=O)(=O)c1ccc(CNC(=O)C[C@@H]2C[C@@]3(CO3)[C@H](O)[C@@H](/C=C/C(C)=C/C[C@@H]3O[C@H](C)[C@H](NC(=O)/C=C\[C@H](C)OC(C)=O)C[C@@H]3C)O2)cc1 [#B94, (2S,3Z)-5-{[(2R,3R,5S,6S)-6-{(2E,4E)-5-[(3R,4R,5R,7S)-4-hydroxy-7-(2-{[4-(methylsulfamoyl)benzyl]amino}-2-oxoethyl)-1,6-dioxaspiro[2.5]oct-5-yl]-3-methylpenta-2,4-dien-1-yl}-2,5-dimethyltetrahydro-2H-pyran-3-yl]amino}-5-oxopent-3-en-2-yl acetate]",4.9 nM,18.6 nM,37.4 nM,–,–,–
"CC(=O)O[C@@H](C)/C=C\C(=O)N[C@@H]1C[C@H](C)[C@H](C/C=C(C)/C=C/[C@@H]2C[C@]3(CO3)C[C@@H](CC(=O)NCCO)O2)O[C@@H]1C [#B95, ((2S,3Z)-5-{[(2R,3R,5S,6S)-6-{(2E,4E)-5-[(3S,5S,7S)-7-{2-[(2-hydroxyethyl)amino]-2-oxoethyl}-1,6-dioxaspiro[2.5]oct-5-yl]-3-methylpenta-2,4-dien-1-yl}-2,5-dimethyltetrahydro-2H-pyran-3-yl]amino}-5-oxopent-3-en-2-yl acetate]",–,–,–,1.06 nM,1.28 nM,11.1 nM
"CC(=O)O[C@@H](C)/C=C\C(=O)N[C@@H]1C[C@H](C)[C@H](C/C=C(C)/C=C/[C@@H]2C[C@]3(CO3)C[C@@H](CC(=O)N(C)Cc3ccc(S(=O)(=O)N(C)C)cc3)O2)O[C@@H]1C [#B96, (2S,3Z)-5-{[(2R,3R,5S,6S)-6-{(2E,4E)-5-[(3S,5S,7S)-7-(2-{[4-(dimethylsulfamoyl)benzyl](methyl)amino}-2-oxoethyl)-1,6-dioxaspiro[2.5]oct-5-yl]-3-methylpenta-2,4-dien-1-yl}-2,5-dimethyltetrahydro-2H-pyran-3-yl]amino}-5-oxopent-3-en-2-yl acetate]",12.3 nM,22.9 nM,31.5 nM,–,–,–
"CC(=O)O[C@@H](C)/C=C\C(=O)N[C@@H]1C[C@H](C)[C@H](C/C=C(C)/C=C/[C@@H]2C[C@]3(CO3)C[C@@H](CC(=O)NCc3ccc(S(N)(=O)=O)cc3)O2)O[C@@H]1C [#B97, (2S,3Z)-5-{[(2R,3R,5S,6S)-2,5-dimethyl-6-{(2E,4E)-3-methyl-5-[(3S,5S,7S)-7-{2-oxo-2-[(4-sulfamoylbenzyl)amino]ethyl}-1,6-dioxaspiro[2.5]oct-5-yl]penta-2,4-dien-1-yl}tetrahydro-2H-pyran-3-yl]amino}-5-oxopent-3-en-2-yl acetate]",5.09 nM,8.83 nM,41.6 nM,–,–,–
"CC(=O)O[C@@H](C)/C=C\C(=O)N[C@@H]1C[C@H](C)[C@H](C/C=C(C)/C=C/[C@@H]2C[C@]3(CO3)C[C@@H](CC(=O)NCc3ccc(S(=O)(=O)N(C)C)cc3)O2)O[C@@H]1C [#B98, (2S,3Z)-5-{[(2R,3R,5S,6S)-6-{(2E,4E)-5-[(3S,5S,7S)-7-(2-{[4-(dimethylsulfamoyl)benzyl]amino}-2-oxoethyl)-1,6-dioxaspiro[2.5]oct-5-yl]-3-methylpenta-2,4-dien-1-yl}-2,5-dimethyltetrahydro-2H-pyran-3-yl]amino}-5-oxopent-3-en-2-yl acetate]",2.55 nM,5.75 nM,8.7 nM,–,–,–
"CC(=O)O[C@@H](C)/C=C\C(=O)N[C@@H]1C[C@H](C)[C@H](C/C=C(C)/C=C/[C@@H]2C[C@]3(CO3)C[C@@H](CC(=O)NCCS(C)(=O)=O)O2)O[C@@H]1C [#B99, (2S,3Z)-5-{[(2R,3R,5S,6S)-2,5-dimethyl-6-{(2E,4E)-3-methyl-5-[(3S,5S,7S)-7-(2-{[2-(methylsulfonyl)ethyl]amino}-2-oxoethyl)-1,6-dioxaspiro[2.5]oct-5-yl]penta-2,4-dien-1-yl}tetraydro-2H-pyran-3-yl]amino}-5-oxopent-3-en-2-yl acetate]",–,–,–,3.28 nM,7.87 nM,21.5 nM
"CC(=O)O[C@@H](C)/C=C\C(=O)N[C@@H]1C[C@H](C)[C@H](C/C=C(C)/C=C/[C@@H]2C[C@]3(CO3)C[C@@H](CC(=O)NCc3ccc(N)cc3)O2)O[C@@H]1C [#B100, (2S,3Z)-5-{[(2R,3R,5S,6S)-6-{(2E,4E)-5-[(3S,5S,7S)-7-{2-[(4-aminobenzyl)amino]-2-oxoethyl}-1,6-dioxaspiro[2.5]oct-5-yl]-3-methylpenta-2,4-dien-1-yl}-2,5-dimethyltetrahydro-2H-pyran-3-yl]amino}-5-oxopent-3-en-2-yl acetate]",5.05 nM,10.6 nM,16.9 nM,–,–,–
